What was measured:
Conditions in all cases: 336 h, Table 3, post-emergence, 14±1 days post application
[1] = system: Lolium multiflorum (LOLMU); experiment: Post-emergence glasshouse test, visual injury, LOLMU; assay type: in vivo
Method: (§1) Seeds of a variety of test species are grown in a sandy loam soil mixture, Lolium multiflorum (LOLMU), Amaranthus retroflexus (AMARE), Echinochloa crus-gaffi (ECHCG), Veronica persica (VERPE), Glycine max (GLXMA), Oryza sativa (ORYSA), Zea mays (ZEAMX), spring wheat (TRZAS), Ipomoea hederacea (IPOHE), Ipomoea purpurea (PHBPU), Stellaria media (STEME), Solanum nigrum (SOLNI), Digitaria sanguinalis (DIGSA), Setaria italica (SETIT), Alopecurus myosuroides (ALOMY) and Avena fatua (AVEFA).
(§2) After sowing, at growth stage BBCH 12-14 (post-emergence), the plants are sprayed with an aqueous spray solution derived from the formulation of the technical active ingredient in acetone/water (50:50) solution containing 0.5% Tween 20 (polyoxyethlyene sorbitan monolaureate, CAS RN 9005-64-5). The test compounds are applied at the required concentration of active ingredient in g/ha. The test plants are then grown in a glasshouse under controlled environmental conditions and watered regularly as required. After 14±1 days post application (for post-emergence test), the test is evaluated by assessing the percentage damage caused to the plants in comparison with the untreated plots. The biological activities for post-emergence testing are shown below (Table 3 and Table 4) as a % visual injury.

[2] = system: Echinochloa crus-gaffi (ECHCG); experiment: Post-emergence glasshouse test, visual injury, ECHCG; assay type: in vivo, Echinochloa crus-galli
Method: as §1, §2

Veronica persica (VERPE) = experiment: Post-emergence glasshouse test, visual injury, VERPE; assay type: in vivo
Method: as §1, §2

[3] = system: Amaranthus retroflexus (AMARE); experiment: Post-emergence glasshouse test, visual injury, AMARE; assay type: in vivo
Method: as §1, §2

Structure (SMILES)	pest or weed control at 500 g/ha [1]	pest or weed control at 500 g/ha [2]	pest or weed control at 500 g/ha (Veronica persica (VERPE))	pest or weed control at 500 g/ha [3]	other results
Cc1cc(-c2cnc(NCCc3c(C)noc3C)nc2C(C)C)on1 [Compound 62]	40%	50%	70%	70%	–
C=COCCCNc1ncc(-c2cc(C)no2)c(C(C)C)n1 [Compound 35]	0%	60%	98%	0%	–
Cc1cc(-c2cnc(NCc3ccncc3)nc2C(C)C)on1 [Compound 18]	–	–	–	–	pest or weed control at 1000 g/ha [1]: 60%; pest or weed control at 1000 g/ha [2]: 30%; pest or weed control at 1000 g/ha (Veronica persica (VERPE)): 99%; pest or weed control at 1000 g/ha [3]: 90%
CCN1CCN(c2ncc(-c3cc(C)no3)c(C(C)C)n2)CC1 [Compound 63]	30%	50%	0%	70%	–
Cc1cc(-c2cnc(NC3CC3)nc2C(C)C)on1 [Compound 38]	50%	60%	100%	100%	–
CC(C)c1nc(NC2CCCC2)ncc1-c1cncs1 [Compound 124]	–	–	–	–	pest or weed control at 62 g/ha [1]: 0%; pest or weed control at 62 g/ha [2]: 0%; pest or weed control at 62 g/ha (Veronica persica (VERPE)): 0%; pest or weed control at 62 g/ha [3]: 10%
Cc1cc(-c2cnc(NCc3ccccc3F)nc2C(F)(F)F)on1 [Compound 113]	–	–	–	–	pest or weed control at 125 g/ha [1]: 0%; pest or weed control at 125 g/ha [2]: 20%; pest or weed control at 125 g/ha (Veronica persica (VERPE)): 0%; pest or weed control at 125 g/ha [3]: 30%
Cc1cc(-c2cnc(NCc3cccc(F)c3)nc2C(C)C)on1 [Compound 17]	–	–	–	–	pest or weed control at 1000 g/ha [1]: 0%; pest or weed control at 1000 g/ha [2]: 80%; pest or weed control at 1000 g/ha (Veronica persica (VERPE)): 100%; pest or weed control at 1000 g/ha [3]: 100%
Cc1cc(-c2cnc(NCc3ccc(F)cc3)nc2C2CCC2)on1 [Compound 105]	–	–	–	–	pest or weed control at 125 g/ha [1]: 0%; pest or weed control at 125 g/ha [2]: 0%; pest or weed control at 125 g/ha (Veronica persica (VERPE)): 50%; pest or weed control at 125 g/ha [3]: 30%
COc1ccc(CCNc2ncc(-c3cc(C)no3)c(C3CC3)n2)cc1OC [Compound 78]	40%	80%	99%	95%	–
COc1ccc(CCNc2ncc(-c3cc(C)no3)c(C(C)C)n2)cc1OC [Compound 34]	30%	80%	100%	70%	–
Cc1cc(-c2cnc(N3CCC(O)CC3)nc2C(C)C)on1 [Compound 76]	0%	30%	0%	80%	–
Cc1ccc(CNc2ncc(-c3cc(C)no3)c(C(C)C)n2)cc1 [Compound 100]	–	–	–	–	pest or weed control at 62 g/ha [1]: 0%; pest or weed control at 62 g/ha [2]: 80%; pest or weed control at 62 g/ha (Veronica persica (VERPE)): 95%; pest or weed control at 62 g/ha [3]: 80%
Cc1cc(-c2cnc(N3CCC(C(N)=O)CC3)nc2C(C)C)on1 [Compound 69]	0%	0%	60%	50%	–
Cc1cc(-c2cnc(NCc3cccnc3)nc2C(F)(F)F)on1 [Compound 111]	–	–	–	–	pest or weed control at 125 g/ha [1]: 10%; pest or weed control at 125 g/ha [2]: 0%; pest or weed control at 125 g/ha (Veronica persica (VERPE)): 0%; pest or weed control at 125 g/ha [3]: 0%
Cc1cc(-c2cnc(N3CCCC3)nc2C(C)C)on1 [Compound 29]	0%	50%	50%	0%	–
Cc1cc(-c2cnc(N3CCN(c4ncccn4)CC3)nc2C(C)(C)C)on1 [Compound 61]	0%	0%	0%	60%	–
Cc1cc(-c2cnc(NC3CC3)nc2C(F)(F)F)on1 [Compound 114]	–	–	–	–	pest or weed control at 125 g/ha [1]: 0%; pest or weed control at 125 g/ha [2]: 20%; pest or weed control at 125 g/ha (Veronica persica (VERPE)): 70%; pest or weed control at 125 g/ha [3]: 0%
Cc1cc(-c2cnc(NCc3ccccc3)nc2C(C)C)on1 [Compound 94]	–	–	–	–	pest or weed control at 62 g/ha [1]: 10%; pest or weed control at 62 g/ha [2]: 80%; pest or weed control at 62 g/ha (Veronica persica (VERPE)): 0%; pest or weed control at 62 g/ha [3]: 60%
